This test concerns the target Delta-type opioid receptor (Homo sapiens, UniProt P41143). As to the kind of experiment: Displacement of [125I]deltorphin 2 from human recombinant delta opioid receptor expressed in HEK cell membranes. The arrangement: species or system HEK293. Background: Loss of bound radioactivity is the signal in a displacement assay; it reports binding, not function.
Delta-type opioid receptor, sequence (P41143 whole entry): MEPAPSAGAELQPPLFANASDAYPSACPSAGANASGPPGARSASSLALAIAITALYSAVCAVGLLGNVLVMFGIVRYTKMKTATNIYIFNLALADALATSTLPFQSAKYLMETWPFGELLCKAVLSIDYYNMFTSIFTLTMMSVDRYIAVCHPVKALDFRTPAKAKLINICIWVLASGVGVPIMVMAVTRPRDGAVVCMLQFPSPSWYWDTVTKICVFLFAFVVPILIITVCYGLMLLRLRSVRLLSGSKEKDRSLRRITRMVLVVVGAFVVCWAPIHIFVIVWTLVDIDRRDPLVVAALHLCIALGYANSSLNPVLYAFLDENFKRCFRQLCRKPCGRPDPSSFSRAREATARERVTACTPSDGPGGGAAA
A word on the IC50: it is the point on the concentration scale where inhibition reaches its midpoint. On to `Cc1cccc(O)c1C(=O)C1=CCCN2CCC[C@H]12` [ELAEOCARPENINE], for which the IC50 turned out to be 2.74 µM.

Take `Cc1cccc2c1C(=O)C1[C@H]3CCCN3CC[C@H]1O2` (some centres undefined) [ELAEOCARPINE]: the IC50 was determined as 86.4 µM.

For the compound `Cc1cccc(O)c1C(=O)[C@@H]1[C@H]2CCCN2CC[C@@H]1O` [ISOELAEOCARPICINE], the IC50 was 35.1 µM.

With `Cc1cccc2c1C(=O)[C@H]1[C@H](CCN3CCC[C@H]13)O2` [ISOELAEOCARPINE], the IC50 came out at 13.6 µM.

Values taken from ChEMBL document CHEMBL1139879, “Indolizidine alkaloids with delta-opioid receptor binding affinity from the leaves of Elaeocarpus fuscoides” (J Nat Prod, 2007).
